Results as given in US8951529B2, “Methods of using small compounds to enhance myeloid derived suppressor cell function for treating autoimmune diseases” (Icahn School of Medicine at Mount Sinai, priority 2009, dated 2015).

Legend:
[1] = test system: Gr-1+/CD115+ MDSCs; assay: HA-TCR T-cell proliferation with MDSCs and MAP kinase activator or inhibitors; assay type: cell-based, mouse; conditions: HA peptide, three days, viable T cell count, FIG. 13A
Procedure: To determine whether MAP kinase is involved in MDSC-mediated T cell suppression and Treg activation, monocytic MDSCs (Gr-1+/CD115+) were purified from spleen of tumor bearing mice and the suppressive function was evaluated. Purified T cells from HA-TCR transgenic T cells were cultured in the presence or absence of irradiated purified Gr-1+/CD115+ MDSCs from tumor-bearing mice, irradiated splenocytes from naïve mice as antigen presenting cells, anisomycin, various inhibitors, and HA peptide (0.5 μg/m1). Three days later, T cell proliferation was assessed by counting viable (trypan blue negative) total T cell number. Proliferation percentages were calculated by the number of experimental group divided by the number of T cell without MDSC, anisomycin or inhibitors (SB, PD). *p<0.05 by ANOVA t-test (FIG. 13A).

[2] = test system: MDSCs; assay: Foxp3 RT-PCR of MDSC-activated T regulatory cells with MAP kinase activator or inhibitors; assay type: cell-based, mouse; conditions: FIG. 13B
Procedure: The expression of Foxp3 and actin (as internal control) was determined by RT-PCR in MDSC-activated T regulatory cells in the presence of p38 MAP kinase activator, anisomycin, p38 MAP kinase inhibitor, SB, and Erk inhibitor, PD (FIG. 13B).

[3] = test system: DSS-induced colitis; assay: DSS-induced colitis in vivo model; design: species or system C57BL/6 mice; conditions: day 11, in comparison with naive healthy mice, FIG. 5C
Text: In certain aspects, the invention is related to the treatment of IBDs. Mouse models of IBD are well known in the art, and may be used to model human IBDs. For example, dextran sodium sulfate (DSS) may be administered to mice to induce IBD. In this model, mice are fed with water containing 3.5% DSS from day 0 to day 11. Following treatment, mice develop colitis. The severity of colitis is quantified (assigned a clinical score) by assessing stool consistency, bleeding, and weight loss, which ranges from 0 (healthy) to 4 (maximal severity). Histologically, DSS produces submucosal erosions, ulceration, inflammatory cell infiltration and crypt abscess as well as epithelioglandular hyperplasia. […] [Kawada et al., 2007, World J. Gastroenterol. 13: 5581-5593; Okayasu et al., 1990, Gastroenterology 98:694-702]
For adoptive transfer of MDSCs, 5×10^6 purified MDSCs suspended in PBS were administered by intravenous infusion at day 0 and day 7.
Mice were left untreated or treated with sorted MDSCs (5×10^6 cells/mouse) alone or in combination with GA and/or SP600125 (Sigma-Aldrich), on the day of disease induction. […] The severity of colitis was quantitated as a clinical score by assessing stool consistency, bleeding, and weight loss, which ranges from 0 (healthy) to 4 (maximal severity). The clinical score (weight loss, stool consistency, and bleeding) of treated mice was assessed in a double-blind fashion.
On day 11 post-IBD induction, colon tissues from treated mice were removed, fixed in 3% formaldehyde, sectioned, and stained with H&E staining to determine the pathology score of colitis. To reflect the general condition of the mice, a disease activity index (DAI) was determined by an investigator blinded to the protocol by scoring the extent of body weight loss, stool guaiac positivity or gross bleeding, and stool consistency according to the method described in Murthy et al. (1993) “Treatment of Dextran Sulfate Sodium-Induced Murine Colitis by Intracolonic Cyclosporin,” Digest. […] Stool consistency and the degree of blood in stool were evaluated on the day when animals were killed. […]

| Compound | MDSC suppression of HA-TCR T-cell proliferation [1] | Treg induction by MDSCs as assessed by Foxp3 expression by RT-PCR [2] | decrease in colonic length [3] |
| --- | --- | --- | --- |
| COc1ccc(C[C@H]2NC[C@H](O)[C@H]2OC(C)=O)cc1 [anisomycin] | reverted the suppressive activity | decreased Treg induction |  |
| COc1cccc(-c2cc(=O)c3ccccc3o2)c1N [PD98059, 2-(2-Amino-3-methoxyphenyl)-4H-1-benzopyran-4-one] | not reverted or enhanced | not significantly different |  |
| Oc1c2ccccc2c2c3c(cccc13)N=N2 [SP600125, 1,9-Pyrazoloanthrone] |  |  | 51.6% |
| C[S+]([O-])c1ccc(-c2nc(-c3ccc(F)cc3)c(-c3ccncc3)[nH]2)cc1 (stereo not shown) [SB203580, 4-(4-Fluorophenyl)-2-(4-methylsulfinylphenyl)-5-(4-pyridyl)-1H-imidazole] | not reverted or enhanced | not significantly different |  |
